The values that follow come from PubChem BioAssay AID328 (DTP/NCI, 2004).

“And” between values parts separate entries of the source, which are not always exact repeats. Equal values may be shown once. Toxic doses and inconclusive results are not listed.

The assay relates to BDF1 mice, P388 leukemia ip, median survival T/C. In words: NCI In Vivo Anticancer Drug Screen. Data for tumor model P388 Leukemia (intraperitoneal) in B6D2F1 (BDF1) mice. As to conditions: endpoint: median survival time, higher = longer survival. The gist of the method:
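In tumour-bearing mice, survival after compound treatment is set against the vehicle group and given as a quotient.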

Where [1] appears, read: dose: 50.0 mg/kg/injection, schedule: Q01DX009 (ip), vehicle: Klucel (hydroxypropylcellulose) (HPC).
[2] abbreviates: dose: 100.0 mg/kg/injection, schedule: Q01DX009 (ip), vehicle: Klucel (hydroxypropylcellulose) (HPC).
[3] abbreviates: dose: 100.0 mg/kg/injection, schedule: Q04DX003 (ip), vehicle: Klucel (hydroxypropylcellulose) (HPC).
The mark [4] stands for this setting: dose: 200.0 mg/kg/injection, schedule: Q01DX001 (ip), vehicle: Klucel (hydroxypropylcellulose) (HPC).
[5] abbreviates: dose: 200.0 mg/kg/injection, schedule: Q01DX009 (ip), vehicle: Klucel (hydroxypropylcellulose) (HPC).
Where [6] appears, read: dose: 200.0 mg/kg/injection, schedule: Q04DX003 (ip), vehicle: Klucel (hydroxypropylcellulose) (HPC).
[7] abbreviates: dose: 400.0 mg/kg/injection, schedule: Q04DX003 (ip), vehicle: Klucel (hydroxypropylcellulose) (HPC).
Where [8] appears, read: dose: 25.0 mg/kg/injection, schedule: Q01DX009 (ip), vehicle: saline with Tween-80.
The mark [9] stands for this setting: dose: 50.0 mg/kg/injection, schedule: Q01DX009 (ip), vehicle: saline with Tween-80.
[10] abbreviates: dose: 50.0 mg/kg/injection, schedule: Q04DX003 (ip), vehicle: Klucel (hydroxypropylcellulose) (HPC).
Where [11] appears, read: dose: 100.0 mg/kg/injection, schedule: Q04DX003 (ip), vehicle: saline with Tween-80.
[12] abbreviates: dose: 200.0 mg/kg/injection, schedule: Q04DX003 (ip), vehicle: saline with Tween-80.
Where [13] appears, read: dose: 400.0 mg/kg/injection, schedule: Q04DX003 (ip), vehicle: saline with Tween-80.
Where [14] appears, read: dose: 100.0 mg/kg/injection, schedule: Q01DX009 (ip), vehicle: saline with Tween-80.
[15] abbreviates: dose: 50.0 mg/kg/injection, schedule: Q01DX009 (ip), vehicle: water.
[16] abbreviates: dose: 100.0 mg/kg/injection, schedule: Q01DX009 (ip), vehicle: water.
Where [17] appears, read: dose: 100.0 mg/kg/injection, schedule: Q04DX003 (ip), vehicle: water.
Where [18] appears, read: dose: 200.0 mg/kg/injection, schedule: Q01DX009 (ip), vehicle: water.
The mark [19] stands for this setting: dose: 200.0 mg/kg/injection, schedule: Q04DX003 (ip), vehicle: water.
Where [20] appears, read: dose: 400.0 mg/kg/injection, schedule: Q04DX003 (ip), vehicle: water.

On to `CCOC(=O)Nc1ccc2c(c1)/C(=N\NC(N)=S)c1ccccc1-2`, for which the T/C (dose: 0.37 mg/kg/injection, schedule: Q01DX009 (ip), vehicle: gum acacia) was 120 % of control; the T/C (dose: 0.75 mg/kg/injection, schedule: Q01DX009 (ip), vehicle: gum acacia) was 108 % of control; the T/C (dose: 1.5 mg/kg/injection, schedule: Q01DX009 (ip), vehicle: gum acacia) is 96 % of control and 108 % of control; the T/C (dose: 3.0 mg/kg/injection, schedule: Q04DX003 (ip), vehicle: gum acacia) was 92 % of control; the T/C (dose: 6.0 mg/kg/injection, schedule: Q04DX003 (ip), vehicle: gum acacia) was 100 % of control; the T/C under setting [1] is 86 % of control. Besides, the T/C under setting [2] was 90 % of control; the T/C under setting [3] is 86 % of control; the T/C under setting [4] was 86 % of control; the T/C under setting [5] is 100 % of control; the T/C under setting [6] was 100 % of control; the T/C under setting [7] is 109 % of control. In addition, the T/C (dose: 400.0 mg/kg/injection, schedule: Q04DX003 (ip), vehicle: gum acacia) is 100 % of control.
`COc1ccc2c(c1OC(C)=O)-c1cc(OC(C)=O)cc3c1C(C2)N(C(=O)CBr)CC3` (stereo not drawn): the T/C was 105 % of control (dose: 6.25 mg/kg/injection, schedule: Q01DX009 (ip), vehicle: saline with Tween-80); 106 % of control (dose: 12.5 mg/kg/injection, schedule: Q01DX009 (ip), vehicle: saline with Tween-80); 116 % of control under setting [8]; 88 % of control and 114 % of control under setting [9].
Take `S=C1SCN(Cc2cccs2)CN1Cc1cccs1`: the T/C is, setting by setting: (dose: 50.0 mg/kg/injection, schedule: Q01DX005 (ip), vehicle: saline with Tween-80) 99 % of control; (dose: 100.0 mg/kg/injection, schedule: Q01DX005 (ip), vehicle: saline with Tween-80) 87 % of control; (dose: 200.0 mg/kg/injection, schedule: Q01DX005 (ip), vehicle: saline with Tween-80) 95 % of control.
As to `C=CC(=O)NCNC(=O)C=C`, the T/C by setting is: (dose: 132.0 mg/kg/injection, schedule: Q04DX003 (ip), vehicle: saline with Tween-80) 118 % of control; (dose: 300.0 mg/kg/injection, schedule: Q04DX003 (ip), vehicle: saline with Tween-80) 222 % of control.
Regarding `COC(OC)C(=O)/C=C/C(C)COC1CCCCO1` (stereo not drawn), the T/C under setting [10] was 113 % of control, the T/C under setting [3] is 118 % of control and the T/C under setting [6] was 109 % of control.
Consider `CC1=C(Br)C(=O)C(c2c(C)c(Br)c(C)c([N+](=O)[O-])c2C)=C(Br)C1=O`, for which the T/C reads like this: (dose: 100.0 mg/kg/injection, schedule: Q01DX001 (ip), vehicle: Klucel (hydroxypropylcellulose) (HPC)) 100 % of control; under setting [4], 110 % of control; (dose: 400.0 mg/kg/injection, schedule: Q01DX001 (ip), vehicle: Klucel (hydroxypropylcellulose) (HPC)) 100 % of control.
In the case of `CN(C)C(c1ccccc1)C(CBr)C(=O)c1ccc(Br)cc1` (stereo not drawn), the T/C is 110 % of control (dose: 6.25 mg/kg/injection, schedule: Q01DX009 (ip), vehicle: saline); 109 % of control and 116 % of control (dose: 16.5 mg/kg/injection, schedule: Q01DX009 (ip), vehicle: saline); 100 % of control and 118 % of control (dose: 25.0 mg/kg/injection, schedule: Q01DX009 (ip), vehicle: saline); 104 % of control (dose: 27.5 mg/kg/injection, schedule: Q04DX003 (ip), vehicle: saline); 113 % of control and 120 % of control (dose: 37.5 mg/kg/injection, schedule: Q01DX009 (ip), vehicle: saline); 100 % of control (dose: 55.0 mg/kg/injection, schedule: Q04DX003 (ip), vehicle: saline).
As for `CC(C)c1nc(-c2ccccc2)c(-c2ccccc2)[nH]1`, the T/C by setting is: under setting [11], 100 % of control; under setting [12], 104 % of control; under setting [13], 100 % of control.
In the case of `O=[N+]([O-])c1ccc2[nH]c3c(c2c1)CSCC3`, the T/C by setting is: under setting [9], 100 % of control; under setting [2], 100 % of control; under setting [14], 96 % of control; under setting [11], 109 % of control; under setting [5], 90 % of control; under setting [12], 107 % of control. In addition, the T/C was 86 % of control (dose: 400.0 mg/kg/injection, schedule: Q01DX009 (ip), vehicle: Klucel (hydroxypropylcellulose) (HPC)); 91 % of control (dose: 400.0 mg/kg/injection, schedule: Q01DX009 (ip), vehicle: saline with Tween-80); 110 % of control under setting [13].
As to `O=c1[nH]c(=O)n(C2CC(O)C(CO)O2)cc1Br` (stereo not drawn), the T/C (dose: 100.0 mg/kg/injection, schedule: Q04DX003 (ip), vehicle: saline sonified) is 100 % of control; the T/C (dose: 200.0 mg/kg/injection, schedule: Q04DX003 (ip), vehicle: saline sonified) was 100 % of control; the T/C (dose: 400.0 mg/kg/injection, schedule: Q04DX003 (ip), vehicle: saline sonified) was 100 % of control.
In the case of `COc1ccc(C=O)cc1OCc1ccccc1`, the T/C runs as follows: (dose: 6.25 mg/kg/injection, schedule: Q01DX009 (ip), vehicle: water) 113 % of control; (dose: 12.5 mg/kg/injection, schedule: Q01DX009 (ip), vehicle: water) 104 % of control; (dose: 25.0 mg/kg/injection, schedule: Q01DX009 (ip), vehicle: water) 109 % of control; under setting [15], 101 % of control and 116 % of control; (dose: 50.0 mg/kg/injection, schedule: Q04DX003 (ip), vehicle: water) 104 % of control; under setting [16], 95 % of control and 97 % of control. In addition, the T/C under setting [17] is 102 % of control and 117 % of control; the T/C under setting [18] is 116 % of control; the T/C under setting [19] was 102 % of control and 114 % of control; the T/C under setting [20] was 117 % of control.
With `CC1CN=C(c2ccc(NC(=O)Nc3ccc(C(=O)Nc4ccc(C5=NCC(C)N5)cc4)cc3)cc2)N1` (stereo not drawn), the T/C is 168 % of control and 209 % of control (dose: 66.0 mg/kg/injection, schedule: Q04DX003 (ip), vehicle: saline with Tween-80); 90 % of control and 222 % of control under setting [11]; 100 % of control (dose: 150.0 mg/kg/injection, schedule: Q04DX003 (ip), vehicle: saline with Tween-80).
On to `O=S1(=O)CCN(Cc2ccccc2)CC1`, for which the T/C was 96 % of control under setting [1], 96 % of control under setting [2] and 91 % of control under setting [5].
For the molecule `CC(=O)OC1(C)CC(C)(C)N=N1` (stereo not drawn), the T/C (dose: 25.0 mg/kg/injection, schedule: Q01DX005 (ip), vehicle: water) is 107 % of control; the T/C (dose: 50.0 mg/kg/injection, schedule: Q01DX005 (ip), vehicle: water) was 105 % of control; the T/C (dose: 100.0 mg/kg/injection, schedule: Q01DX005 (ip), vehicle: water) is 105 % of control; the T/C (dose: 200.0 mg/kg/injection, schedule: Q01DX005 (ip), vehicle: water) is 114 % of control; the T/C (dose: 400.0 mg/kg/injection, schedule: Q01DX005 (ip), vehicle: water) was 107 % of control.
In the case of `C#CCOC(=O)NC1CCCCC1`, the T/C under setting [1] is 100 % of control; the T/C under setting [10] was 100 % of control; the T/C under setting [2] is 100 % of control; the T/C under setting [3] was 95 % of control; the T/C under setting [5] is 100 % of control; the T/C under setting [6] was 109 % of control.
For the molecule `Cc1ncc2n1C=CN(C(=O)c1ccc([N+](=O)[O-])cc1)C2O` (stereo not drawn), the T/C was 103 % of control under setting [15]; 94 % of control under setting [16]; 102 % of control under setting [17]; 93 % of control under setting [18]; 93 % of control under setting [19]; 94 % of control (dose: 400.0 mg/kg/injection, schedule: Q01DX009 (ip), vehicle: water). In addition, under setting [20], the T/C was 98 % of control.
Turning to `Cc1ccc(S(=O)(=O)N(C)c2ccc(I)c(Cl)c2Cl)cc1`, the T/C reads like this: under setting [3], 100 % of control; under setting [6], 90 % of control; under setting [7], 90 % of control.
With `Cc1ccc(S(=O)(=O)c2ccc(Sc3cccc[n+]3[O-])c3nonc23)cc1`, the T/C runs as follows: under setting [8], 119 % of control; under setting [14], 111 % of control.
